Our source for the IC50 values is ChEMBL document CHEMBL4622956, “Amide derivatives of Gallic acid: Design, synthesis and evaluation of inhibitory activities against in vitro α-synuclein aggregation” (Bioorg Med Chem, 2020).

The assay addresses Alpha-synuclein (Homo sapiens, UniProt P37840). Kind of assay: Inhibition of alpha-synuclein (unknown origin) aggregation incubated for 3 days by thioflavin T based fluorescence assay.

As a reminder, the IC50 is the point on the concentration scale where inhibition reaches its midpoint. Read a low IC50 as higher potency. `O=C(O)c1cc(O)c(O)c(O)c1` [GALLIC ACID]: the IC50 is 4.43 µM.
